# Laboratory results published in patent US20020137929A1, “1 - (3-heterocyclylphenyl) isothiourea, -isourea, -guanidine and -amidine herbicidal agents” (Intellectual Property Department, BASF Aktiengesellschaft, priority 1998, published 2002).
# Legend:
# GALAP (Galium) = assay: Preemergence herbicidal evaluation; type: in vivo, Galium aparine; settings: rated 4-5 weeks after treatment
# Outline: (§1)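 Steps: mix seeds into potting soil; plant atop ~1 inch soil; spray compound in aqueous acetone (~0.0156-0.500 kg/ha equivalent); maintain in greenhouse with watering; rate visually 0-9 versus control at 4-5 weeks.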
# ABUTH (Velvetleaf) = assay: Preemergence herbicidal evaluation; type: in vivo, Abutilon theophrasti; settings: rated 4-5 weeks after treatment
# Outline: as §1
# ECHCG (Barnyardgrass) = assay: Preemergence herbicidal evaluation; type: in vivo, Echinochloa crus-galli; settings: rated 4-5 weeks after treatment
# Outline: as §1
# [1] = system: ECHORC (Watergrass (Calif.)); assay: Postemergence weed control under flooded paddy conditions; type: in vivo, Echinochloa oryzoides; settings: postemergence weeds, 3-4 weeks after treatment
# Outline: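 Flood-water application, about 0.0313–0.500 kg/ha a.i. in aqueous/acetone 50/50 v/v; water depth 1.5–3 cm throughout. Weeds 3–5 cm, rice 1.5–2.5 leaf. Greenhouse; 0–9 visual rating vs control at 3–4 wk.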
# SETVI (Foxtail, Green) = assay: Preemergence herbicidal evaluation; type: in vivo, Setaria viridis; settings: rated 4-5 weeks after treatment
# Outline: as §1
# AMBEL (Ragweed, Common) [2] = assay: Postemergence herbicidal evaluation; type: in vivo, Ambrosia artemisifolia; settings: postemergence
# Outline: (§2)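 Visual 0-9 injury score (stand, vigor, malformation, size, chlorosis, appearance vs untreated) taken four to five weeks post-spray, averaged across repeat tests. Test plants about two weeks old; foliar spray of acetone/water (1:1) with 0.5% surfactant delivering ~0.0156-0.500 kg active/ha.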
# ZEAMX (Corn, Field) = assay: Postemergence herbicidal evaluation; type: in vivo, Zea mays; settings: postemergence
# Outline: as §2
# [3] = system: GLXMAW (Soybean, Williams); assay: Postemergence herbicidal evaluation; type: in vivo, Glycine max, (L.) Merr. cv Williams; settings: postemergence
# Outline: as §2
# AMBEL (Ragweed, Common) [4] = assay: Preemergence herbicidal evaluation; type: in vivo, Ambrosia artemisifolia; settings: rated 4-5 weeks after treatment
# Outline: as §1
# CASOB (Sicklepod) = assay: Preemergence herbicidal evaluation; type: in vivo, Cassia obtusifolia; settings: rated 4-5 weeks after treatment
# Outline: as §1
# [5] = system: SAGPY (Arrowhead (Pygmaea)); assay: Preemergence weed control under flooded paddy conditions; type: in vivo, Sagittaria pygmaea; settings: rated 3-4 weeks after treatment
# Outline: (§3)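 Herbicidal effect is scored visually on a 0-9 scale against an untreated control, three to four weeks after compounds are pipetted into the flood water (1.5 to 3 cm deep) over seeds planted in silt loam at 0.5 cm depth. Rates: about 0.0313 to 0.500 kg/ha.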
# [6] = system: GLXMAW (Soybean, Williams); assay: Preemergence herbicidal evaluation; type: in vivo, Glycine max, (L.) Merr. cv Williams; settings: rated 4-5 weeks after treatment
# Outline: as §1
# [7] = system: IPOHE (Morningglory, Ivyleaf); assay: Postemergence herbicidal evaluation; type: in vivo, Ipomoea hederacea; settings: postemergence
# Outline: as §2
# CYPSE (Flatsedge) = assay: Preemergence weed control under flooded paddy conditions; type: in vivo, Cyperus serotinus; settings: rated 3-4 weeks after treatment
# Outline: as §3
structure (smiles),measurement,setting,value
"CCOC(=O)CN1C(=O)C(Cc2ccccc2)SC1=Nc1cc(-n2c(=O)cc(C(F)(F)F)n(C)c2=O)c(F)cc1Cl (stereo not drawn) [Compound 24, Ethyl 5-benzyl-2-{{2-chloro-5-[3,6-dihydro-3-methyl-2,6-dioxo-4-(trifluoromethyl)-1(2H)-pyrimidinyl]-4-fluorophenyl}imino}-4-oxo-3-thiazolidineacetate]",GALAP preemergence herbicidal rating,GALAP (Galium); rate 0.0625 kg/ha,0.0
same,GALAP preemergence herbicidal rating,GALAP (Galium); rate 0.1250 kg/ha,0.0
same,GALAP preemergence herbicidal rating,GALAP (Galium); rate 0.2500 kg/ha,4.0
same,ABUTH preemergence herbicidal rating,ABUTH (Velvetleaf); rate 0.0625 kg/ha,4.0
same,ABUTH preemergence herbicidal rating,ABUTH (Velvetleaf); rate 0.1250 kg/ha,9.0
same,ABUTH preemergence herbicidal rating,ABUTH (Velvetleaf); rate 0.2500 kg/ha,9.0
same,ECHCG preemergence herbicidal rating,ECHCG (Barnyardgrass); rate 0.0625 kg/ha,0.0
same,ECHCG preemergence herbicidal rating,ECHCG (Barnyardgrass); rate 0.1250 kg/ha,0.0
same,ECHCG preemergence herbicidal rating,ECHCG (Barnyardgrass); rate 0.2500 kg/ha,0.0
same,Herbicidal rating ECHORC,[1]; rate 0.0313 kg/ha,4.0
same,Herbicidal rating ECHORC,[1]; rate 0.0625 kg/ha,9.0
same,Herbicidal rating ECHORC,[1]; rate 0.1250 kg/ha,9.0
same,Herbicidal rating ECHORC,[1]; rate 0.2500 kg/ha,9.0
same,SETVI preemergence herbicidal rating,"SETVI (Foxtail, Green); rate 0.0625 kg/ha",0.0
same,SETVI preemergence herbicidal rating,"SETVI (Foxtail, Green); rate 0.1250 kg/ha",0.0
same,SETVI preemergence herbicidal rating,"SETVI (Foxtail, Green); rate 0.2500 kg/ha",1.0
same,AMBEL herbicidal rating,"AMBEL (Ragweed, Common) [2]; rate 0.0158 kg/ha",2.0
same,AMBEL herbicidal rating,"AMBEL (Ragweed, Common) [2]; rate 0.0315 kg/ha",3.0
same,AMBEL herbicidal rating,"AMBEL (Ragweed, Common) [2]; rate 0.0630 kg/ha",9.0
same,ZEAMX herbicidal rating,"ZEAMX (Corn, Field); rate 0.0158 kg/ha",4.0
same,ZEAMX herbicidal rating,"ZEAMX (Corn, Field); rate 0.0315 kg/ha",4.5
same,ZEAMX herbicidal rating,"ZEAMX (Corn, Field); rate 0.0630 kg/ha",5.5
same,GLXMAW herbicidal rating,[3]; rate 0.0158 kg/ha,4.0
same,GLXMAW herbicidal rating,[3]; rate 0.0315 kg/ha,5.0
same,GLXMAW herbicidal rating,[3]; rate 0.0630 kg/ha,5.5
same,AMBEL preemergence herbicidal rating,"AMBEL (Ragweed, Common) [4]; rate 0.0625 kg/ha",0.0
same,AMBEL preemergence herbicidal rating,"AMBEL (Ragweed, Common) [4]; rate 0.1250 kg/ha",0.0
same,AMBEL preemergence herbicidal rating,"AMBEL (Ragweed, Common) [4]; rate 0.2500 kg/ha",2.0
same,CASOB preemergence herbicidal rating,CASOB (Sicklepod); rate 0.0625 kg/ha,0.0
same,CASOB preemergence herbicidal rating,CASOB (Sicklepod); rate 0.1250 kg/ha,0.0
same,CASOB preemergence herbicidal rating,CASOB (Sicklepod); rate 0.2500 kg/ha,0.0
same,Herbicidal rating SAGPY,[5]; 0.0313 kg/ha,0.0
same,Herbicidal rating SAGPY,[5]; 0.0625 kg/ha,0.0
same,Herbicidal rating SAGPY,[5]; 0.1250 kg/ha,0.0
same,Herbicidal rating SAGPY,[5]; 0.2500 kg/ha,0.0
same,GLXMAW preemergence herbicidal rating,[6]; rate 0.0625 kg/ha,0.0
same,GLXMAW preemergence herbicidal rating,[6]; rate 0.1250 kg/ha,0.0
same,GLXMAW preemergence herbicidal rating,[6]; rate 0.2500 kg/ha,0.0
same,IPOHE herbicidal rating,[7]; rate 0.0158 kg/ha,2.0
same,IPOHE herbicidal rating,[7]; rate 0.0315 kg/ha,9.0
CN1C(=O)CS/C1=N/c1cc(-n2c(=O)cc(C(F)(F)F)n(C)c2=O)c(F)cc1Cl [Compound 7],GALAP preemergence herbicidal rating,GALAP (Galium); rate 0.0157 kg/ha,4.0
same,GALAP preemergence herbicidal rating,GALAP (Galium); rate 0.0313 kg/ha,7.5
same,GALAP preemergence herbicidal rating,GALAP (Galium); rate 0.0625 kg/ha,9.0
same,GALAP preemergence herbicidal rating,GALAP (Galium); rate 0.1250 kg/ha,9.0
same,GALAP preemergence herbicidal rating,GALAP (Galium); rate 0.2500 kg/ha,9.0
same,ABUTH preemergence herbicidal rating,ABUTH (Velvetleaf); rate 0.0157 kg/ha,9.0
same,ABUTH preemergence herbicidal rating,ABUTH (Velvetleaf); rate 0.0313 kg/ha,9.0
same,ABUTH preemergence herbicidal rating,ABUTH (Velvetleaf); rate 0.0625 kg/ha,9.0
same,ABUTH preemergence herbicidal rating,ABUTH (Velvetleaf); rate 0.1250 kg/ha,9.0
same,ABUTH preemergence herbicidal rating,ABUTH (Velvetleaf); rate 0.2500 kg/ha,9.0
same,ECHCG preemergence herbicidal rating,ECHCG (Barnyardgrass); rate 0.0157 kg/ha,5.0
same,ECHCG preemergence herbicidal rating,ECHCG (Barnyardgrass); rate 0.0313 kg/ha,9.0
same,ECHCG preemergence herbicidal rating,ECHCG (Barnyardgrass); rate 0.0625 kg/ha,9.0
same,ECHCG preemergence herbicidal rating,ECHCG (Barnyardgrass); rate 0.1250 kg/ha,9.0
same,ECHCG preemergence herbicidal rating,ECHCG (Barnyardgrass); rate 0.2500 kg/ha,9.0
same,Herbicidal rating ECHORC,[1]; rate 0.0313 kg/ha,7.0
same,Herbicidal rating ECHORC,[1]; rate 0.0625 kg/ha,8.5
same,Herbicidal rating ECHORC,[1]; rate 0.1250 kg/ha,9.0
same,Herbicidal rating ECHORC,[1]; rate 0.2500 kg/ha,9.0
same,Herbicidal rating CYPSE,CYPSE (Flatsedge); 0.0313 kg/ha,4.0
same,Herbicidal rating CYPSE,CYPSE (Flatsedge); 0.0625 kg/ha,7.0
same,Herbicidal rating CYPSE,CYPSE (Flatsedge); 0.1250 kg/ha,7.0
same,Herbicidal rating CYPSE,CYPSE (Flatsedge); 0.2500 kg/ha,9.0
same,SETVI preemergence herbicidal rating,"SETVI (Foxtail, Green); rate 0.0157 kg/ha",9.0
same,SETVI preemergence herbicidal rating,"SETVI (Foxtail, Green); rate 0.0313 kg/ha",9.0
same,SETVI preemergence herbicidal rating,"SETVI (Foxtail, Green); rate 0.0625 kg/ha",9.0
same,SETVI preemergence herbicidal rating,"SETVI (Foxtail, Green); rate 0.1250 kg/ha",9.0
same,SETVI preemergence herbicidal rating,"SETVI (Foxtail, Green); rate 0.2500 kg/ha",9.0
same,AMBEL herbicidal rating,"AMBEL (Ragweed, Common) [2]; rate 0.0157 kg/ha",5.0
same,AMBEL herbicidal rating,"AMBEL (Ragweed, Common) [2]; rate 0.0313 kg/ha",5.0
same,AMBEL herbicidal rating,"AMBEL (Ragweed, Common) [2]; rate 0.0625 kg/ha",7.0
same,AMBEL herbicidal rating,"AMBEL (Ragweed, Common) [2]; rate 0.1250 kg/ha",9.0
same,ZEAMX herbicidal rating,"ZEAMX (Corn, Field); rate 0.0157 kg/ha",5.0
same,ZEAMX herbicidal rating,"ZEAMX (Corn, Field); rate 0.0313 kg/ha",6.0
same,ZEAMX herbicidal rating,"ZEAMX (Corn, Field); rate 0.0625 kg/ha",7.0
same,ZEAMX herbicidal rating,"ZEAMX (Corn, Field); rate 0.1250 kg/ha",7.0
same,GLXMAW herbicidal rating,[3]; rate 0.0157 kg/ha,5.0
same,GLXMAW herbicidal rating,[3]; rate 0.0313 kg/ha,6.5
same,GLXMAW herbicidal rating,[3]; rate 0.0625 kg/ha,7.5
same,GLXMAW herbicidal rating,[3]; rate 0.1250 kg/ha,7.5
same,AMBEL preemergence herbicidal rating,"AMBEL (Ragweed, Common) [4]; rate 0.0157 kg/ha",5.0
same,AMBEL preemergence herbicidal rating,"AMBEL (Ragweed, Common) [4]; rate 0.0313 kg/ha",8.5
same,AMBEL preemergence herbicidal rating,"AMBEL (Ragweed, Common) [4]; rate 0.0625 kg/ha",9.0
same,AMBEL preemergence herbicidal rating,"AMBEL (Ragweed, Common) [4]; rate 0.1250 kg/ha",9.0
same,AMBEL preemergence herbicidal rating,"AMBEL (Ragweed, Common) [4]; rate 0.2500 kg/ha",9.0
same,CASOB preemergence herbicidal rating,CASOB (Sicklepod); rate 0.0157 kg/ha,9.0
same,CASOB preemergence herbicidal rating,CASOB (Sicklepod); rate 0.0313 kg/ha,9.0
same,CASOB preemergence herbicidal rating,CASOB (Sicklepod); rate 0.0625 kg/ha,9.0
same,CASOB preemergence herbicidal rating,CASOB (Sicklepod); rate 0.1250 kg/ha,8.0
same,CASOB preemergence herbicidal rating,CASOB (Sicklepod); rate 0.2500 kg/ha,9.0
same,Herbicidal rating SAGPY,[5]; 0.0313 kg/ha,2.0
same,Herbicidal rating SAGPY,[5]; 0.0625 kg/ha,4.0
same,Herbicidal rating SAGPY,[5]; 0.1250 kg/ha,8.0
same,Herbicidal rating SAGPY,[5]; 0.2500 kg/ha,9.0
same,GLXMAW preemergence herbicidal rating,[6]; rate 0.0157 kg/ha,5.0
same,GLXMAW preemergence herbicidal rating,[6]; rate 0.0313 kg/ha,6.5
same,GLXMAW preemergence herbicidal rating,[6]; rate 0.0625 kg/ha,7.5
same,GLXMAW preemergence herbicidal rating,[6]; rate 0.1250 kg/ha,8.0
same,GLXMAW preemergence herbicidal rating,[6]; rate 0.2500 kg/ha,8.5
